Laboratory results taken from US10828344B2, “Antimicrobial yeast preparation and methods for preparation and use thereof” (priority 2016, dated 2020).
Marks after values point to notes of the source that are not given here.

Key:
[1] = system: Salmonella enterica ATCC 8759; assay: Minimal Inhibitory Concentration test (OD) with bactericidal/static check; format: cell-based; details: 0 CFU/ml needed for bactericidal
Procedure: (§1) Sterile, 12×75 mm plastic test tubes were used to perform the test. 1 mL of the test compositions were placed in the appropriate labeled tubes. 1 mL of each adjusted bacterial inoculum was added to each appropriate labeled tube in the dilution series and mixed. The tubes were closed with loose caps. The tubes were then incubated at 37° C. for 24 hours with the exception of the Campylobacter tubes, which were incubated microaerophilically at 42° C. for 48 hours. At the end of the incubation phases the tubes were examined for turbidity. All optically clear tubes were plated to agar plates to determine if the test article was bactericidal or bacteriostatic. A product was considered to be “bactericidal” if less than 3 CFU were detected (Clear tubes with a few CFU), and “bacteriostatic” if greater the 3 CFU were detected (Clear tubes and growth detected).
(§2) The tubes were examined for turbidity, indicating growth of the organism. […] The lowest concentration of the agent that inhibits growth of the organism, as detected by lack of visual turbidity (matching the negative control) was designated the minimum inhibitory concentration (MIC).
(§3) Additional experiments were performed to determine bactericidal and bacteriostatic effects of preparation made from wine lees from different varietals, effects of aging of preparations on bactericidal and bacteriostatic effectiveness, and to compare effectiveness to conventional antibiotic treatment. Methods were as described above for testing bacteriostatic and bactericidal effects. Preparations were tested against Salmonella enterica (ATCC 8759) and E. coli 0157:H7 (ATCC 700728).
(§4) The following preparations were tested: a lees preparation from Chardonnay grapes that had not been enzymatically treated and had been prepared approximately 2 months before testing (CH16), a lees preparation from Pinot Noir grapes that had not been enzymatically treated and had been prepared approximately 14 months before testing (PNC15), a lees preparation from Pinot Noir grapes that had not been enzymatically treated and had been prepared approximately 2 months before testing (PNC16), a lees preparation from Cabernet Franc grapes that had been enzymatically treated and had been prepared approximately 2 months before testing (CFE16), CELMANAX™ (SCP) (hydrolyzed yeast), and salinomycin, 0.005% solution (antibiotic).

[2] = system: Escherichia coli 0157:H7 ATCC 700728; assay: as above; format: cell-based; details: for Bactericidal or Static check of optically clear MIC tubes, Escherichia coli 0157:H7 ATCC 700728: 0 CFU/ml needed for bactericidal
Procedure: as §1, §2, §3, §4

[3] = In vivo calf study: body weight gain; parameters: species or system Holstein calves
Procedure: An in vivo study was performed to compare effects of lees-based preparations as disclosed herein to conventional commercially available product yeast fermentation product and Decoquinate on performance and health of neonatal Holstein calves. Lees was prepared as described above (a lees preparation from Pinot Noir grapes that had not been enzymatically treated and had been prepared approximately 6 months before testing (PNC16)). PNC16 was compared with […]) (hydrolyzed yeast) and an antibiotic, DECCOX®-M manufactured by Zoetis Inc., Decoquinate. The study was conducted at Spruce Haven Farms, Union Springs, N.Y., a commercial dairy consisting of 1,800 mature cows. There were thirty calf hutches available to conduct the trial that were aligned in one row. The study consisted of thirty female Holstein calves. As calves were born they were successively placed on one of four treatments until 28 calves were assigned, then the remaining 2 calves were assigned to treatment 2 and 3 respectively. […] Calves were housed in fiberglass hutches (4'×8') with an outside run (4'×6') with straw bedding inside the hutch. Within 2 hr. of birth, calves were offered 4 lb. of colostrum. Thereafter, pasteurized whole milk was offered twice daily (08:00 and 16:00 h) and water and dry calf starter was available at all times in removable buckets. During the morning feeding the liquid (CEL or PNC16) or dry (22.7 mg) test articles were dissolved in the milk. Calves body weights were recorded when moved into the hutches and again at 21 d of life.

[4] = In vivo calf study: hematology and haptoglobin; parameters: species or system Holstein calves; details: 10 day old calves
Procedure: An in vivo study was performed to compare effects of lees-based preparations as disclosed herein to conventional commercially available product yeast fermentation product and Decoquinate on performance and health of neonatal Holstein calves. Lees was prepared as described above (a lees preparation from Pinot Noir grapes that had not been enzymatically treated and had been prepared approximately 6 months before testing (PNC16)). PNC16 was compared with […]) (hydrolyzed yeast) and an antibiotic, DECCOX®-M manufactured by Zoetis Inc., Decoquinate. The study was conducted at Spruce Haven Farms, Union Springs, N.Y., a commercial dairy consisting of 1,800 mature cows. There were thirty calf hutches available to conduct the trial that were aligned in one row. The study consisted of thirty female Holstein calves. As calves were born they were successively placed on one of four treatments until 28 calves were assigned, then the remaining 2 calves were assigned to treatment 2 and 3 respectively. […] Blood samples were collected via jugular vein-puncture before the pm milk feeding on day 10 of life. Samples were collected in heparinized vacutainers. Whole blood was analyzed for hematology: red blood count, hematocrit, hemoglobin, mean cell volume, mean cell hemoglobin, mean cell hemoglobin concentration, red cell distribution width, reticulocyte, white blood cell: neutrophil, lymphocyte, monocyte, eosinophil, basophil, platelet, mean platelet volume, platelet, distribution width and procalcitonin. Plasma was obtained by centrifugation at 1,500×g for 15 min. Plasma samples were frozen (-40° C.) and shipped to the Michigan State University (DCPAH) laboratory for haptoglobin analysis.

Eimeria species = assay: In vivo calf study: fecal shedding of Eimeria species; parameters: species or system Eimeria (in Holstein calves); details: day 21 of age (FIG. 4); Control 71.5%
Procedure: (§5) An in vivo study was performed to compare effects of lees-based preparations as disclosed herein to conventional commercially available product yeast fermentation product and Decoquinate on performance and health of neonatal Holstein calves. […] PNC16 was compared with CELMANAX™ (SCP) (hydrolyzed yeast) and an antibiotic, DECCOX®-M manufactured by Zoetis Inc., Decoquinate.
(§6) The study was conducted at Spruce Haven Farms, Union Springs, N.Y., a commercial dairy consisting of 1,800 mature cows. There were thirty calf hutches available to conduct the trial that were aligned in one row. The study consisted of thirty female Holstein calves. As calves were born they were successively placed on one of four treatments until 28 calves were assigned, then the remaining 2 calves were assigned to treatment 2 and 3 respectively.
(§7) Fecal samples (˜10-20 g) were obtain via digital stimulation from each calf on day 7, 14 and 21 of life. Samples were sent to the Cornell Diagnostic Laboratory for zinc sulfate floatation to determine type and degree of fecal shedding. Body temperatures were take just prior to fecal collections on day 7, 14 and 21 of life. Fecal consistency scores: were recorded for each calf daily using the following scale: 1=soft, solid consistency, no fluid, 2=semi-solid, mostly solid, 3=runny: semi solid, mostly fluid, 4=watery, all fluid 5=watery with blood.

[5] = In vivo calf study: rectal temperature and fecal consistency score; parameters: species or system Holstein calves
Procedure: as §5, §6, §7

Cryptosporidium oocytes = assay: In vivo calf study: fecal shedding of Cryptosporidium oocytes; parameters: species or system Cryptosporidium (in Holstein calves)
Procedure: as §5, §6, §7

cryptosporidiosis = details: Moore (2003); cited from earlier work
[6] = 20 Mg/ml (ABX: salinomycin 0.005% solution)
[7] = 40 Mg/ml (ABX: salinomycin 0.005% solution)

CC[C@@H](C(=O)[C@@H](C)[C@@H](O)[C@H](C)[C@@H]1O[C@@H]([C@@H](CC)C(=O)O)CC[C@@H]1C)[C@H]1O[C@]2(C=C[C@@H](O)[C@]3(CC[C@@](C)([C@H]4CC[C@](O)(CC)[C@H](C)O4)O3)O2)[C@H](C)C[C@@H]1C [ABX, salinomycin]
Bactericidal or Static check of optically clear MIC tubes, Salmonella enterica ATCC 8759 [1, 6]: 50,000 CFU/ml | Bactericidal or Static check of optically clear MIC tubes, Salmonella enterica ATCC 8759 [1, 7]: 50,000 CFU/ml | Turbidity Reading (OD), Escherichia coli 0157:H7 ATCC 700728 [2]: .075^c OD | Bactericidal or Static check of optically clear MIC tubes, Escherichia coli 0157:H7 ATCC 700728 [2, 6]: 950 CFU/ml | Bactericidal or Static check of optically clear MIC tubes, Escherichia coli 0157:H7 ATCC 700728 [2, 7]: 950 CFU/ml

CCCCCCCCCCOc1cc2c(O)c(C(=O)OCC)cnc2cc1OCC [DECCOX ®, Decoquinate]
Birth wt ([3]; baseline at birth, Control 40.4): 40.2 kg | Body wt gain ([3]; birth through day 21, Control 6.8): 7.3 kg | ADG ([3]; birth through day 21, Control .32): .35 kg/day | Day 21 wt ([3]; day 21 of life, Control 47.1): 47.6^b kg | Basophil (Baso) ([4]; Control 0.01): 0.00 K/ul | Monocyte (Mono) ([4]; Control 0.02): 0.05 K/ul | Eosinophil (Eosin) ([4]; Control 0.03): 0.08 K/ul | Neutrophil (NEUT) ([4]; Control 3.7): 5.1 K/ul | Lymphocyte (LYMPH) ([4]; Control 4.2): 2.4 K/ul | Mean Platelet Volume (MPV) ([4]; Control 5.5): 5.6 fL | Platelet Distribution Width (PDW) ([4]; Control 6.34): 7.72^a fL | Reticulocyte (Ret) ([4]; Control 7.13): 1.49^b K/ul | Red Blood Count (RBC) ([4]; Control 7.4): 7.1 M/uL | White Blood Cell (WBC) ([4]; Control 7.96): 7.67^b K/ul | Hemoglobin (HBG) ([4]; Control 9.4): 8.9 g/dL | Mean Cell Hemoglobin (MCH) ([4]; Control 12.6): 12.4 pg | Hematocrit (HCT) ([4]; Control 29.8): 28.5% | Red Cell Distribution Width (RDW) ([4]; Control 31.4): 30.7% | Mean Cell Hemoglobin Concentration (MCHC) ([4]; Control 31.5): 31.4 g/dL | Mean Cell Volume (MCV) ([4]; Control 40.0): 39.8 fL | Platelet (Plt) ([4]; Control 654.7): 579.8^b K/ul | Neutrophil/Lymphocyte Ratio (NLR) ([4]; Control .87): 2.11^a | Percentages Baso ([4]; percent of white cells, Control 0.19): 0.00% | Percentages Mono ([4]; percent of white cells, Control 0.21): 0.63% | Percentages Eosin ([4]; percent of white cells, Control 0.34): 0.98% | Percentages Neutrophil ([4]; percent of white cells, Control 48.38): 66.63^a % | Percentages Lymphocyte ([4]; percent of white cells, Control 50.87): 31.75^b % | Haptoglobin (Hp) ([4]; plasma, Control 24.13): 64.5 µg/mL | Percent of calves shedding Eimeria (Eimeria species): 0% | Fecal consistency score (FCS) ([5]; between day 12 and 17 d of life, scale 1-5, Control 2.3): 2.4 | Rectal temperature ([5]; day 14, comparison in words): higher (p<005) than PNC16 | Cryptosporidium Oocytes/g of feces (Cryptosporidium oocytes; Day 1, Control 0): 0 Oocytes/g of feces | % of calves shedding Cryptosporidium oocytes (Cryptosporidium oocytes; Day 1, Control 0.0): 0.0% | % of calves shedding Cryptosporidium oocytes (Cryptosporidium oocytes; Day 7, Control 71.4): 28.6% | Cryptosporidium Oocytes/g of feces (Cryptosporidium oocytes; Day 7, Control 85638): 2^b Oocytes/g of feces | % of calves shedding Cryptosporidium oocytes (Cryptosporidium oocytes; Day 14, Control 85.0): 100.0% | Cryptosporidium Oocytes/g of feces (Cryptosporidium oocytes; Day 14, Control 14153): 209473^a Oocytes/g of feces | % of calves shedding Cryptosporidium oocytes (Cryptosporidium oocytes; Day 21, Control 28.6): 28.6% | Cryptosporidium Oocytes/g of feces (Cryptosporidium oocytes; Day 21, Control 368): 11^b Oocytes/g of feces | clinical benefit as preventative treatment for cryptosporidiosis (cryptosporidiosis): no clinical benefit
